Assay results published in patent publication US12336981B2, “Compounds and compositions for the inhibition of NAMPT” (Valo Health, Inc., priority 2010, dated 2025).
Read-outs that look alike come from different tables or passages of the source.

Columns and labels:
A2780 cells = test: In-vitro cell proliferation assay (SRB), A2780 cells; type: cell-based; details: A2780 cells, 72 hours, read-out: A2780 IC50
How it was run: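 Proliferation is assessed by sulforhodamine B staining following a 72-hour incubation with compound dilutions containing 0.1% DMSO.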

NAMPT = molecular target: T1, NAMPT (Homo sapiens, UniProt P43490); test: Biochemical inhibition assay: NAMPT enzymatic reaction, NMN quantified by mass spectrometry; details: read-out: Biochem IC50
T1 construct: His tag; host or cells: E. coli
How it was run: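 Inhibition of E. coli-expressed His-tagged human NAMPT, measured as NMN formation by mass spectrometry after a 30 min room-temperature reaction containing 1 μM NAM, 100 μM PRPP and 2.5 mM ATP.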

[1] = Homo sapiens, A2780, 72 h, SRB assay

T1 sequence (P43490 whole entry): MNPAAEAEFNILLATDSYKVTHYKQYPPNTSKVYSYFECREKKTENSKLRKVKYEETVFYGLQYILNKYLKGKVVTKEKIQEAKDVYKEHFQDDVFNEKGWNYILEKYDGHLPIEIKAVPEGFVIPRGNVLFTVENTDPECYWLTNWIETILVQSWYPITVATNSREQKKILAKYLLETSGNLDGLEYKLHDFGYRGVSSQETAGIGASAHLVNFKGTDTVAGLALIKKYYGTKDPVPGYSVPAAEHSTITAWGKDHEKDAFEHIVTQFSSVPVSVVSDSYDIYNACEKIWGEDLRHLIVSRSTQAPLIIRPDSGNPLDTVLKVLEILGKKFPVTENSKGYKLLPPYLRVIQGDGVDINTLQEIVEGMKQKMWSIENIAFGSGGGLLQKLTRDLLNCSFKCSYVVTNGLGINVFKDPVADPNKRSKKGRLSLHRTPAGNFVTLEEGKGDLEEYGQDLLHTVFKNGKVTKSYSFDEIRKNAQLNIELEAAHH

## Cn1ncc2ccc(S(=O)(=O)c3ccc(CNC(=O)c4cnc5nccn5c4)cc3)cc21 [N-{[4-(1-methyl-1H-indazole-6-sulfonyl)phenyl]methyl}imidazo[1,2-a]pyrimidine-6-carboxamide]
A2780 cells; Homo sapiens, A2780, 72 h, SRB
  IC50: 5 nM
NAMPT; NAMPT enzymatic assay
  IC50: 1.6 nM

## Cc1cc(Cl)ccc1S(=O)(=O)c1ccc(CNC(=O)c2cnc3[nH]ncc3c2)cc1 [N-({4-[(4-chloro-2-methylbenzene)sulfonyl]phenyl}methyl)-1H-pyrazolo[3,4-b]pyridine-5-carboxamide]
A2780 cells; Homo sapiens, A2780, 72 h, SRB
  IC50: 58.7 nM
NAMPT; NAMPT enzymatic reaction
  IC50: 77.5 nM

## O=C(NCc1ccc(S(=O)(=O)c2ccc(N3CCOCC3)nc2)cc1)c1cc2ccncc2o1 [N-({4-[6-(morpholin-4-yl)pyridine-3-sulfonyl]phenyl}methyl)furo[2,3-c]pyridine-2-carboxamide]
A2780 cells; Homo sapiens, A2780, 72 h, SRB
  IC50: 0.9 nM
NAMPT; NAMPT enzymatic assay
  IC50: 2 nM

## Cc1cc(S(=O)(=O)c2ccc(CNC(=O)c3cc4ccncc4o3)cc2)c(C)cc1F
A2780 cells; Homo sapiens, A2780, 72 h, SRB
  IC50: 24.2 nM
NAMPT; NAMPT enzymatic reaction
  IC50: 17.6 nM

## CCOc1cccc(S(=O)(=O)c2ccc(CNC(=O)c3cc4cnccc4[nH]3)cc2)c1 [N-({4-[(3-ethoxybenzene)sulfonyl]phenyl}methyl)-1H-pyrrolo[3,2-c]pyridine-2-carboxamide]
A2780 cells; Homo sapiens, A2780, 72 h, SRB
  IC50: 3.5 nM
NAMPT; NAMPT enzymatic reaction
  IC50: 7.7 nM

## CC(C)Oc1ccc(S(=O)(=O)c2ccc(CNC(=O)c3cc4ccncc4o3)cc2)cc1
A2780 cells; Homo sapiens, A2780, 72 h, SRB
  IC50: 5.7 nM
NAMPT; NAMPT enzymatic assay
  IC50: 6.8 nM

## O=C(NCc1ccc(S(=O)(=O)c2ccc(C(F)(F)F)c(Cl)c2)cc1)c1cc2ccncc2s1
A2780 cells; Homo sapiens, A2780, 72 h, SRB
  IC50: 2.3 nM
NAMPT; NAMPT enzymatic assay
  IC50: 3 nM

## COc1ccc(S(=O)(=O)c2ccc(CNC(=O)c3cnc4nccn4c3)cc2)cc1C
A2780 cells; Homo sapiens, A2780, 72 h, SRB
  IC50: 5.5 nM
NAMPT; NAMPT enzymatic reaction
  IC50: 2.2 nM

## O=C(NCc1ccc(S(=O)(=O)c2cc(F)ccc2Cl)cc1)c1cc2ccncc2s1
A2780 cells; Homo sapiens, A2780, 72 h, SRB
  IC50: 5.7 nM
NAMPT; NAMPT enzymatic reaction
  IC50: 4.2 nM

## COc1ccc2cc(S(=O)(=O)c3ccc(CNC(=O)c4cc5cnccc5[nH]4)cc3)ccc2c1 [N-{[4-(6-methoxynaphthalene-2-sulfonyl)phenyl]methyl}-1H-pyrrolo[3,2-c]pyridine-2-carboxamide]
A2780 cells; Homo sapiens, A2780, 72 h, SRB
  IC50: 5.1 nM
NAMPT; NAMPT enzymatic assay
  IC50: 9.9 nM

## CC(=O)c1cccc(S(=O)(=O)c2ccc(CNC(=O)c3cc4ccncc4s3)cc2)c1 [N-({4-[(3-acetylbenzene)sulfonyl]phenyl}methyl)thieno[2,3-c]pyridine-2-carboxamide]
A2780 cells; [1]
  IC50: 2.6 nM
NAMPT; NAMPT enzymatic reaction
  IC50: 4 nM

## Cc1ccc(S(=O)(=O)c2ccc(CNC(=O)c3ccc4nccn4c3)cc2)cc1F [N-({4-[(3-fluoro-4-methylbenzene)sulfonyl]phenyl}methyl)imidazo[1,2-a]pyridine-6-carboxamide]
A2780 cells; Homo sapiens, A2780, 72 h, SRB
  IC50: 3.78 nM
NAMPT; NAMPT enzymatic reaction
  IC50: 13.3 nM

## COc1ccc(S(=O)(=O)c2ccc(CNC(=O)c3cc4ccncc4o3)cc2)cc1Cl [N-({4-[(3-chloro-4-methoxybenzene)sulfonyl]phenyl}methyl)furo[2,3-c]pyridine-2-carboxamide]
A2780 cells; Homo sapiens, A2780, 72 h, SRB
  IC50: 1.8 nM
NAMPT; NAMPT enzymatic reaction
  IC50: 7.3 nM

## COc1ccc(S(=O)(=O)c2ccc(CNC(=O)c3cc4cnccc4[nH]3)cc2)cc1Cl
A2780 cells; Homo sapiens, A2780, 72 h, SRB
  IC50: 2.1 nM
NAMPT; NAMPT enzymatic reaction
  IC50: 10.7 nM

## O=C(NCc1ccc(S(=O)(=O)c2ccccc2)cc1)c1ccc2scnc2c1 [N-(4-(phenylsulfonyl)benzyl)benzo[d]thiazole-5-carboxamide]
A2780 cells; [1]
  IC50: 3870 nM
NAMPT; NAMPT enzymatic reaction
  IC50: 47 nM

## CCCOc1ccc(S(=O)(=O)c2ccc(CNC(=O)c3cc4ccncc4o3)cc2)c(C)c1
A2780 cells; Homo sapiens, A2780, 72 h, SRB
  IC50: 59.6 nM
NAMPT; NAMPT enzymatic reaction
  IC50: 22.5 nM

## O=C(NCc1ccc(S(=O)(=O)c2ccc(C(F)(F)F)c(Cl)c2)cc1)c1cc2ccncc2o1
A2780 cells; Homo sapiens, A2780, 72 h, SRB
  IC50: 6.2 nM
NAMPT; NAMPT enzymatic assay
  IC50: 7.9 nM

## O=C(NCc1ccc(S(=O)(=O)c2cccc(-c3ccccc3)c2)cc1)c1cnc2nccn2c1
A2780 cells; Homo sapiens, A2780, 72 h, SRB
  IC50: 3.3 nM
NAMPT; NAMPT enzymatic reaction
  IC50: 0.9 nM

## COc1c(Cl)ccc(S(=O)(=O)c2ccc(CNC(=O)c3cnc4nccn4c3)cc2)c1Cl
A2780 cells; Homo sapiens, A2780, 72 h, SRB
  IC50: 25.5 nM
NAMPT; NAMPT enzymatic reaction
  IC50: 6.6 nM

## O=C(NCc1ccc(S(=O)(=O)c2ccc(OCC(F)(F)F)c(F)c2)cc1)c1cnc2nccn2c1
A2780 cells; Homo sapiens, A2780, 72 h, SRB
  IC50: 7.3 nM
NAMPT; NAMPT enzymatic assay
  IC50: 4.4 nM

## CC(NC(=O)c1cc2cnccc2[nH]1)c1ccc(S(=O)(=O)N2CCCCC2)cc1 (centres unmarked) [N-{1-[4-(piperidine-1-sulfonyl)phenyl]ethyl}-1H-pyrrolo[3,2-c]pyridine-2-carboxamide]
A2780 cells; [1]
  IC50: 7 nM
NAMPT; NAMPT enzymatic reaction
  IC50: 20 nM

## O=C(NCc1ccc(S(=O)(=O)c2ccc(Cl)cc2)cc1)c1cc2cnccc2[nH]1 [N-({4-[(4-chlorobenzene)sulfonyl]phenyl}methyl)-1H-pyrrolo[3,2-c]pyridine-2-carboxamide]
A2780 cells; [1]
  IC50: 25 nM
NAMPT; NAMPT enzymatic reaction
  IC50: 9 nM

## Cc1ccc(C)c(S(=O)(=O)c2ccc(CNC(=O)c3cc4ccncc4o3)cc2)c1
A2780 cells; Homo sapiens, A2780, 72 h, SRB
  IC50: 23.9 nM
NAMPT; NAMPT enzymatic reaction
  IC50: 18.1 nM

## CCCCOc1ccc(S(=O)(=O)c2ccc(CNC(=O)c3cc4ccncc4o3)cc2)cc1F
A2780 cells; Homo sapiens, A2780, 72 h, SRB
  IC50: 13.9 nM
NAMPT; NAMPT enzymatic reaction
  IC50: 12.3 nM

## CCOc1cccc(S(=O)(=O)c2ccc(CNC(=O)c3ccc4nccn4c3)cc2)c1
A2780 cells; Homo sapiens, A2780, 72 h, SRB
  IC50: 3.1 nM
NAMPT; NAMPT enzymatic reaction
  IC50: 5 nM

## COc1cncc(S(=O)(=O)c2ccc(CNC(=O)c3ccc4nccn4c3)cc2)c1 [N-{[4-(5-methoxypyridine-3-sulfonyl)phenyl]methyl}imidazo[1,2-a]pyridine-6-carboxamide]
A2780 cells; Homo sapiens, A2780, 72 h, SRB
  IC50: 3.4 nM
NAMPT; NAMPT enzymatic assay
  IC50: 9 nM

## Cn1ncc2c(S(=O)(=O)c3ccc(CNC(=O)c4cnc5nccn5c4)cc3)cccc21 [N-{[4-(1-methyl-1H-indazole-4-sulfonyl)phenyl]methyl}imidazo[1,2-a]pyrimidine-6-carboxamide]
A2780 cells; Homo sapiens, A2780, 72 h, SRB
  IC50: 10.3 nM
NAMPT; NAMPT enzymatic assay
  IC50: 4.2 nM

## COc1ccc(S(=O)(=O)c2ccc(CNC(=O)c3cnc4[nH]ncc4c3)cc2)c(C(F)(F)F)c1 [N-[(4-{[4-methoxy-2-(trifluoromethyl)benzene]sulfonyl}phenyl)methyl]-1H-pyrazolo[3,4-b]pyridine-5-carboxamide]
A2780 cells; Homo sapiens, A2780, 72 h, SRB
  IC50: 62.8 nM
NAMPT; NAMPT enzymatic assay
  IC50: 86.8 nM

## Cc1ccc(F)c(S(=O)(=O)c2ccc(CNC(=O)c3cnc4[nH]ncc4c3)cc2)c1
A2780 cells; SRB
  IC50: 71.6 nM
NAMPT; NAMPT enzymatic reaction
  IC50: 24.1 nM

## Cn1c(C(=O)NCc2ccc(S(=O)(=O)c3ccccc3)cc2)cc2cnccc21 [N-{[4-(benzenesulfonyl)phenyl]methyl}-1-methyl-1H-pyrrolo[3,2-c]pyridine-2-carboxamide]
A2780 cells; [1]
  IC50: > 30000 nM
NAMPT; NAMPT enzymatic reaction
  IC50: > 10000 nM

## O=C(NCc1ccc(S(=O)(=O)c2ccc(-c3ccccc3)cc2)cc1)c1cc2ccncc2s1
A2780 cells; Homo sapiens, A2780, 72 h, SRB
  IC50: 10.6 nM
NAMPT; NAMPT enzymatic reaction
  IC50: 3 nM

## COc1ccc(S(=O)(=O)c2ccc(CNC(=O)c3cc4ccncc4o3)cc2)c(C(F)(F)F)c1
A2780 cells; Homo sapiens, A2780, 72 h, SRB
  IC50: 15.2 nM
NAMPT; NAMPT enzymatic assay
  IC50: 14.6 nM

## CCCS(=O)(=O)Nc1cccc(S(=O)(=O)c2ccc(CNC(=O)c3cnc4nccn4c3)cc2)c1
A2780 cells; Homo sapiens, A2780, 72 h, SRB
  IC50: 86.2 nM
NAMPT; NAMPT enzymatic assay
  IC50: 2.3 nM

## O=C(NCc1ccc(S(=O)(=O)c2cc(Cl)cc(Cl)c2)cc1)c1cc2cnccc2[nH]1
A2780 cells; Homo sapiens, A2780, 72 h, SRB
  IC50: 0.4 nM
NAMPT; NAMPT enzymatic reaction
  IC50: 1 nM

## N#Cc1cccc(S(=O)(=O)c2ccc(CNC(=O)c3cc4ccncc4o3)cc2)c1 [N-({4-[(3-cyanobenzene)sulfonyl]phenyl}methyl)furo[2,3-c]pyridine-2-carboxamide]
A2780 cells; Homo sapiens, A2780, 72 h, SRB
  IC50: 12.6 nM
NAMPT; NAMPT enzymatic reaction
  IC50: 15.4 nM

## CC(C)COc1ccc(S(=O)(=O)c2ccc(CNC(=O)c3cc4cnccc4[nH]3)cc2)cc1
A2780 cells; Homo sapiens, A2780, 72 h, SRB
  IC50: 9.4 nM
NAMPT; NAMPT enzymatic assay
  IC50: 12.7 nM

## O=C(NCc1ccc(S(=O)(=O)c2cncc(Cl)c2)cc1)c1cnc2[nH]ncc2c1 [N-{[4-(5-chloropyridine-3-sulfonyl)phenyl]methyl}-1H-pyrazolo[3,4-b]pyridine-5-carboxamide]
A2780 cells; Homo sapiens, A2780, 72 h, SRB
  IC50: 6.2 nM
NAMPT; NAMPT enzymatic assay
  IC50: 23.8 nM
